Reference: publication PMC3393770 (Chembiochem, 2012)
Where two headings read alike, the source gives them in different places.

Target: T1, Saccharomyces cerevisiae 20S proteasome, β5 subunit (chymotrypsin-like activity) (Saccharomyces cerevisiae, UniProt P23724+P30656)
T1 sequence (P30656 76-287): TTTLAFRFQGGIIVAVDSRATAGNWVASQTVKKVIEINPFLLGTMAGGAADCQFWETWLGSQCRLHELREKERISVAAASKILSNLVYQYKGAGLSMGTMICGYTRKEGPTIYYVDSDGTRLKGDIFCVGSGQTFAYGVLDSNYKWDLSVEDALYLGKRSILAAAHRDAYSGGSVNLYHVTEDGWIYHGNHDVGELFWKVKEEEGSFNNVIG
T1 sequence (P23724 20-241): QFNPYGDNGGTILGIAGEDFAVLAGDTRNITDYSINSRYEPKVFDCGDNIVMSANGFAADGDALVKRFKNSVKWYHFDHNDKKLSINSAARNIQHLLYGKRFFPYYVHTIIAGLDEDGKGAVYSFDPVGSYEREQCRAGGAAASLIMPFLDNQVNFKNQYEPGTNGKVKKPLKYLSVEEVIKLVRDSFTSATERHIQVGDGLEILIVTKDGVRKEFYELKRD
Assay: […] proteasome β[…]
Assay type: biochemical

[1] = read-out: Proteasome Inhibition(IC50), chymotrypsin-like site, 0.5 μg/mL proteasome, covalent (α,β-epoxyketone, Thr1)

SMILES: CCCCCC(=O)N[C@H](C(=O)N[C@@H](CC[S+](C)[O-])C(=O)N[C@@H](CC(C)C)C(=O)[C@@]1(C)CO1)C(C)C (mixture of isomers) [compound 1, carmaphycin A]
- IC50 [1]: 2.5 ± 0.3 nM

SMILES: CCCCCC(=O)N[C@H](C(=O)N[C@@H](CCS(C)(=O)=O)C(=O)N[C@@H](CC(C)C)C(=O)[C@@]1(C)CO1)C(C)C [compound 2, carmaphycin B]
- IC50 [1]: 2.6 ± 0.9 nM

SMILES: C[C@@]12OC(=O)[C@]1([C@@H](O)[C@@H]1C=CCCC1)NC(=O)[C@@H]2CCCl [compound 11, salinosporamide A]
- IC50: 1.4 ± 0.2 nM
